Data taken from publication PMC6940941, “Development of Thiazolidinedione-Based HDAC6 Inhibitors to Overcome Methamphetamine Addiction” (International Journal of Molecular Sciences, 2019).

Key:
HDAC1 = molecular target: T1, HDAC1 (Homo sapiens, UniProt Q13547); assay: Enzymatic HDAC fluorogenic assay (BPS Bioscience), HDAC1; assay type: biochemical; settings: 37 °C, 30 min incubation
T1 construct: purchased BPS Bioscience #50061
Protocol: (§4) Tubastain A (Portland, OR, USA) was purchased from TCI chemicals.
(§5) Enzymatic HDAC assay was performed following manufacturer’s protocol (BPS Bioscience). Briefly, HDAC assay buffer (35 µL) was mixed with 5 µL of BSA (1 mg/mL) and 5 µL of HDAC substrate (200 µM) in 96-well black plate. […] After incubation, 50 µL of undiluted 2 × HDAC developer was added to each well. After the mixture was incubated at RT for 15 min, fluorescence intensity was measured using a microplate reader at 360 nm excitation and 460 nm emission wavelengths.

HDAC6 [1] = molecular target: T2, HDAC6 (Homo sapiens, UniProt Q9UBN7); assay: Enzymatic HDAC fluorogenic assay (BPS Bioscience), HDAC6
T2 sequence (Q9UBN7 1-1215): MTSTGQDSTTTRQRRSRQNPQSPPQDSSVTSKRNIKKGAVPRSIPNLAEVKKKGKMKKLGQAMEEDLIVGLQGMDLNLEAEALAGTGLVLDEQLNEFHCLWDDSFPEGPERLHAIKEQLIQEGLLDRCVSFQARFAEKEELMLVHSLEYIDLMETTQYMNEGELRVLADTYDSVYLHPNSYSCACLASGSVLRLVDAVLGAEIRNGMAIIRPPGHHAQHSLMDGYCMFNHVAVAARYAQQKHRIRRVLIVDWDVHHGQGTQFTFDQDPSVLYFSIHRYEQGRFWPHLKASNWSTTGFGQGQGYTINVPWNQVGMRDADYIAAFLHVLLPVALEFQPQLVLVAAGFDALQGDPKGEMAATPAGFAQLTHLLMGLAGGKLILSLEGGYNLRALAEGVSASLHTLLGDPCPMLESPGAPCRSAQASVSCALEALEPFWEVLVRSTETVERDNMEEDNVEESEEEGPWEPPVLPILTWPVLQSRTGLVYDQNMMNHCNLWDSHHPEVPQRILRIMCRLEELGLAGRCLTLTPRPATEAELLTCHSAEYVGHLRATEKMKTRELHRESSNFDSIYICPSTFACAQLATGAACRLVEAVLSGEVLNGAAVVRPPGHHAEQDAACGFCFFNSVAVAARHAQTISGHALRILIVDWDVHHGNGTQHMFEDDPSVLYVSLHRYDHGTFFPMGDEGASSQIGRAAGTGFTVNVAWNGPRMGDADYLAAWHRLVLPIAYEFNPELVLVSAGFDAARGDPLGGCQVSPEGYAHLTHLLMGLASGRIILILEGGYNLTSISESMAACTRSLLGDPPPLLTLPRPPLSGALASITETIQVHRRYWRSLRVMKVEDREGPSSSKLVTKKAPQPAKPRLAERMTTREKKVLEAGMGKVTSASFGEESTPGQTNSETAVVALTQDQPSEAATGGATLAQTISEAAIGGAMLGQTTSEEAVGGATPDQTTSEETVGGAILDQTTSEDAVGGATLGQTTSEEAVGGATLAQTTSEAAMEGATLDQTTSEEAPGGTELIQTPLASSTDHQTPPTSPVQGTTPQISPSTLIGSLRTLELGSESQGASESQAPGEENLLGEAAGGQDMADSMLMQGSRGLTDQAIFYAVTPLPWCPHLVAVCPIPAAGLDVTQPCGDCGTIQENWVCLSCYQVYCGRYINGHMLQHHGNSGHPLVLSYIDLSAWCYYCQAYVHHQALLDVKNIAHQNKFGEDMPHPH
Protocol: as §4, §5

SH-SY5Y cells [2] = assay: Assessment of cell morphology (phase contrast microscopy); assay type: cell-based, human
Protocol: SH-SY5Y cells (1 × 10^4 cells/well) were seeded in 6-well plate, and the cells were allowed to attach for 72 h. Culture medium was then changed to fresh medium containing METH (1 mM) for pretreat 4 h. After being preincubated for 4 h, add to compound 6b (5, 10, and 20 µM) for 24 h.
Figure 3 Effect of methamphetamine (METH) and compound 6b on the cell morphology and viability of SH-SY5Y cells. (A) Effect of methamphetamine on the cell viability of SH-SY5Y. Cells were incubated with the indicated concentrations of methamphetamine (METH) for 24 h and cell viability was measured using the colorimetric MTS assay. Data are presented as mean ± SD (n = 4). (B) Bright-field images of SH-SY5Y cells. […]

Ac-α-tubulin = assay: Western blot of Ac-α-tubulin / α-tubulin in SH-SY5Y cells; assay type: cell-based, human
Protocol: (§1) We further explored the precise cellular mechanism of compound 6b. Histone H3 and α-tubulin are well-known substrates of HDAC1 and HDAC6 [23, 24]. Therefore, inhibition of HDAC1 and HDAC6 enzymes promotes the accumulation of acetylated Histone H3 and α-tubulin, respectively. Therefore, SH-SY5Y cells were incubated with compound 6b at various concentrations (0, 1, 5, 10, and 20 µM) for 24 h and the expression levels of α-tubulin, Ac-α-tubulin, Histone H3, and Ac-Histone H3 were analysed by Western blot. […] The administration of 6b at relatively low concentration of 1 µM caused the acetylation of α-tubulin via inhibition of HDAC6.
We next explored the underlying molecular and biochemical mechanisms behind the morphological changes. α-Tubulin is the basic protein that constitutes the cytoskeleton and the dynamic acetylation and deacetylation of α-tubulin play an important role in the morphology of cells. […]. […] We next investigated if compound 6b reversed the loss of the acetylation caused by methamphetamine. […].
(§2) The cells were washed and lysed in ice-cold lysis buffer (23 mM Tris-HCl pH 7.6, 130 mM NaCl, 1% NP-40, 1% sodium deoxycholate, 0.1% SDS) and 30 µg of lysate per lane was separated by SDS-PAGE, followed by transferring to a PVDF membrane (Bio rad, Hercules, USA). The membrane was blocked with 5% skim milk in TBST, and then incubated with primary antibody. After being treated with goat-anti rabbit secondary antibody (Santa Cruz, CA, USA) coupled horseradish peroxidase, proteins were visualized by ECL chemiluminescence according to the instructions of the manufacturer’s instruction (GE Healthcare, Chicago, IL, USA).
(§3) Figure 2 Effect of compound 6b on the cell viability of SH-SY5Y and the acetylation status of α-tubulin and Histone H3. (A) SH-SY5Y cells were treated with the indicated concentrations of compound 6b for 24 h and the cell viability was measured using the colorimetric MTS assay. Data are presented as mean ± SD (n = 4). (B) SH-SY5Y cells were incubated with the indicated concentrations of compound 6b or Tubastatin A (Tub) for 24 h and the expression levels of α-tubulin, Ac-α-tubulin, Histone H3, and Ac-Histone H3 were analysed by Western blot. Tubastatin A was employed as a positive control and β-actin was used as a loading control. The p value was obtained by Student t-test. * p < 0.01 as compared to vehicle.
. (A) SH-SY5Y cells were incubated with the indicated concentrations of methamphetamine (METH) for 24 h and the expression levels of Ac-α-tubulin and α-tubulin were analysed by Western blot. β-actin was used as a loading control. […]

Ac-Histone H3 = assay: Western blot of Ac-Histone H3 / Histone H3 in SH-SY5Y cells; assay type: cell-based, human; settings: 24 h
Protocol: as §1, §2, §3

HDAC6 [3] = molecular target: T2, HDAC6
Protocol: as §4, §5

[4] = parameters: method as in PMID 30597327; settings: hampered in vivo application; cited from earlier work
SH-SY5Y cells [5] = assay: Cell viability, colorimetric MTS assay; assay type: cell-based, human; settings: 24 h, up to 1 mM
Protocol: SH-SY5Y (1 × 10^3 cells/well) were seeded in 96-well plate, the medium volume was brought to 100 µL, and the cells were allowed to attach for 14 h. Various concentrations of compound 6b (1, 5, 10, 30, 50, 70, and 100 µM) and METH (0.1 and 1 mM) were then added to the wells. Cells were then incubated at 37 °C for 24 h. Cell viability was determined using the Promega Cell Titer 96 Aqueous One Solution cell proliferation assay. Absorbance at 490 nm was read on Tecan Infinite F200 Pro plate reader, and values were expressed as percent of absorbance from cells incubated in DMSO alone.
as §3, with “Tubastatin A was employed as a positive control and β-actin was used as a loading control. The p value was obtained by Student t-test. * p < 0.01 as compared to vehicle.” left out
Figure 3 Effect of methamphetamine (METH) and compound 6b on the cell morphology and viability of SH-SY5Y cells. […] Cells were incubated with the indicated concentrations of methamphetamine (METH) for 24 h and cell viability was measured using the colorimetric MTS assay. […]

[6] = SH-SY5Y, 0, 0.5, 1, 2, and 3 mM, 24 h

T1 sequence (Q13547 whole entry): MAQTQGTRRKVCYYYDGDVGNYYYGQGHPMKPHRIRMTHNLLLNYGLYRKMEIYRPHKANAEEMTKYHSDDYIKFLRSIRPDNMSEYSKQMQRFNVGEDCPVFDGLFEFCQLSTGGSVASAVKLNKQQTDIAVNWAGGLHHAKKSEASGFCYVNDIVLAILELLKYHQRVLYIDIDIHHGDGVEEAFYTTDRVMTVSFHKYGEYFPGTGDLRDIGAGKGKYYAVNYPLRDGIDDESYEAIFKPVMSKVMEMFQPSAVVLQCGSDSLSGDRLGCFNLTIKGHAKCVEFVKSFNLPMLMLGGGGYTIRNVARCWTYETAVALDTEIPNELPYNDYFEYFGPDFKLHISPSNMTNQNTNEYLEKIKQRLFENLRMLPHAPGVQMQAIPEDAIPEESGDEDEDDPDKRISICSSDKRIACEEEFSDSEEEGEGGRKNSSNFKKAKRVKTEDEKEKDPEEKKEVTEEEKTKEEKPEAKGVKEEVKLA

**Q.** Which IC50 (HDAC1) does the source give for `O=C(NO)c1cccc(CN2C(=O)CSC2=O)c1` [Compound 6a, 3-((2,4-Dioxothiazolidin-3-yl)methyl)-N-hydroxybenzamide] here?
**A.** The IC50 was > 50000 nM.

**Q.** And the IC50 (HDAC6 [1])?
**A.** Its IC50 is 1960 nM.

**Q.** For `O=C(NO)c1ccc(CN2C(=O)CSC2=O)cc1` [Compound 6b, 4-((2,4-Dioxothiazolidin-3-yl)methyl)-N-hydroxybenzamide], which “effect on METH-induced cell morphology change” value (SH-SY5Y cells [2]; SH-SY5Y pretreated with 1 mM METH for 4 h, then 5, 10, and 20 µM for 24 h, dose-dependent) is on record?
**A.** The value was “reversed effect on the cell morphology change from a rounded shape back to a spindle shape”.

**Q.** What about the IC50 (HDAC1) of the same compound?
**A.** The IC50 was 388 nM.

**Q.** And the “acetylation of α-tubulin after METH-promoted loss of acetylation” value (Ac-α-tubulin; SH-SY5Y pretreated with METH 3 mM for 4 h, then 6b (1 µM) for 24 h)?
**A.** Its value is “significant increase”.

**Q.** What about the “acetylation of α-tubulin” value (Ac-α-tubulin; SH-SY5Y, 0, 1, 5, 10, and 20 µM, 24 h) of the same compound?
**A.** The value was “dose-dependently induced”.

**Q.** And the “concentration that caused the acetylation of α-tubulin” value (Ac-α-tubulin; SH-SY5Y, 24 h)?
**A.** The value was 1 µM.

**Q.** What about the “acetylation of Histone H3” value (Ac-Histone H3; SH-SY5Y, 0, 1, 5, 10, and 20 µM) of the same compound?
**A.** Its value is “dose-dependently induced”.

**Q.** What about the “protein level of Histone H3” value (Ac-Histone H3; SH-SY5Y, 0-20 µM) of the same compound?
**A.** The value was “increases in proportion to the concentration”.

**Q.** And the “concentration able to promote the acetylation of Histone H3” value (Ac-Histone H3; SH-SY5Y)?
**A.** Its value is 10 µM.

**Q.** What about the “Selectivity Index” value (HDAC6 [3]) of the same compound?
**A.** Its value is 18.5.

**Q.** And the IC50 (HDAC6 [1])?
**A.** The IC50 was 21 nM.

**Q.** Which IC50 (HDAC1) does the source give for `CCCC1SC(=O)N(Cc2ccc(C(=O)NO)cc2)C1=O` (centres unmarked) [Compound 8a, 4-((2,4-Dioxo-5-propylthiazolidin-3-yl)methyl)-N-hydroxybenzamide] here?
**A.** Its IC50 is > 100000 nM.

**Q.** What about the IC50 (HDAC6 [1]) of the same compound?
**A.** Its IC50 is 79300 nM.

**Q.** For `C=CCC1SC(=O)N(Cc2ccc(C(=O)NO)cc2)C1=O` (centres unmarked) [Compound 8b, 4-((5-Allyl-2,4-dioxothiazolidin-3-yl)methyl)-N-hydroxybenzamide], which IC50 (HDAC1) is on record?
**A.** Its IC50 is > 100000 nM.

**Q.** And the IC50 (HDAC6 [1])?
**A.** Its IC50 is 1300 nM.

**Q.** For `O=C(NO)c1ccc(CN2C(=O)SC(Cc3ccccc3)C2=O)cc1` (centres unmarked) [Compound 8c, 4-((5-Benzyl-2,4-dioxothiazolidin-3-yl)methyl)-N-hydroxybenzamide], which IC50 (HDAC1) is on record?
**A.** The IC50 was > 100000 nM.

**Q.** And the IC50 (HDAC6 [1])?
**A.** Its IC50 is 628 nM.

**Q.** Which solubility [4] does the source give for `O=C(NO)c1ccc2c(c1)C(=O)c1ccccc1C2=O` [anthraquinone-based HDAC6 inhibitor] here?
**A.** The solubility was “poor solubility”.

**Q.** Which results are given for `CN[C@@H](C)Cc1ccccc1` [methamphetamine, Methamphetamine]?
**A.** cell morphology (SH-SY5Y cells [2]; SH-SY5Y, 1 mM): rounded shape with a shrunken morphology; acetylation of α-tubulin (Ac-α-tubulin; [6]): dose-dependently decreased; expression level of α-tubulin (Ac-α-tubulin; [6]): remained unchanged; effect on cell viability (SH-SY5Y cells [5]): no toxicity
